Test results taken from paper PMC9518264, “Design and synthesis of novel quinazolinone-based derivatives as EGFR inhibitors with antitumor activity” (Journal of Enzyme Inhibition and Medicinal Chemistry, 2022).
Read-outs that look alike come from different tables or passages of the source.

Legend:
MDA-MB-435 = assay: cells; assay type: cell-based; conditions: Homo sapiens
HCT-116 = assay: cells; assay type: cell-based; conditions: Homo sapiens
OVCAR-3 = assay: NCI 60 cell line antiproliferative screening (SRB), Ovarian cancer; conditions: Homo sapiens, OVCAR-3, read-out: growth inhibition % (GI%)
SF-295 = assay: cells; assay type: cell-based; conditions: Homo sapiens
KM12 = assay: cells; assay type: cell-based; conditions: Homo sapiens
SF-539 = assay: cells; assay type: cell-based; conditions: Homo sapiens
NCI-H460 = assay: cells; assay type: cell-based; conditions: Homo sapiens
SR = assay: cells; assay type: cell-based; conditions: Homo sapiens, read-out: growth inhibition % (GI%)
SNB-75 = assay: cells; assay type: cell-based; conditions: Homo sapiens
PC-3 = assay: cells; assay type: cell-based; conditions: Homo sapiens
NCI-H522 = assay: cells; assay type: cell-based; conditions: Homo sapiens
[1] = tested on: panel of 60 tumour cell lines; assay: NCI 60 cell line antiproliferative screening (SRB), whole panel or subpanels (means, ranges, words); assay type: cell-based, human; conditions: for inhibition at 10 µM: Homo sapiens, 60 cell, mean over the cell line panel, read-out: Mean growth inhibition % (mean GI%)
HT29 = assay: cells; assay type: cell-based; conditions: Homo sapiens
786-0 = assay: cells; assay type: cell-based; conditions: Homo sapiens
TK-10 = assay: cells; assay type: cell-based; conditions: Homo sapiens
ACHN = assay: cells; assay type: cell-based; conditions: Homo sapiens, read-out: growth inhibition % (GI%)
NCI-H322M = assay: cells; assay type: cell-based; conditions: Homo sapiens, read-out: growth inhibition % (GI%)
CCRF-CEM = assay: cells; assay type: cell-based; conditions: Homo sapiens, read-out: growth inhibition % (GI%)
UACC-62 = assay: cells; assay type: cell-based; conditions: Homo sapiens
HOP-62 = assay: cells; assay type: cell-based; conditions: Homo sapiens
EKVX = assay: cells; assay type: cell-based; conditions: Homo sapiens, read-out: growth inhibition % (GI%)
MOLT-4 = assay: cells; assay type: cell-based; conditions: Homo sapiens
SK-OV-3 = assay: cells; assay type: cell-based; conditions: Homo sapiens
COLO-205 = assay: cells; assay type: cell-based; conditions: Homo sapiens
SK-MEL-5 = assay: cells; assay type: cell-based; conditions: Homo sapiens
MDA-MB-468 = assay: NCI 60 cell line antiproliferative screening (SRB), Breast cancer; conditions: Homo sapiens, MDA-MB-468, read-out: growth inhibition % (GI%)
HCT-15 = assay: cells; assay type: cell-based; conditions: Homo sapiens
SW-620 = assay: cells; assay type: cell-based; conditions: Homo sapiens
BT-549 = assay: cells; assay type: cell-based; conditions: Homo sapiens
SNB-19 = assay: cells; assay type: cell-based; conditions: Homo sapiens
HCC-2998 = assay: cells; assay type: cell-based; conditions: Homo sapiens
SK-MEL-28 = assay: cells; assay type: cell-based; conditions: Homo sapiens
U251 = assay: cells; assay type: cell-based; conditions: Homo sapiens
A549/ATCC = assay: cells; assay type: cell-based; conditions: Homo sapiens
RPMI-8226 = assay: cells; assay type: cell-based; conditions: Homo sapiens
SN12C = assay: cells; assay type: cell-based; conditions: Homo sapiens, read-out: growth inhibition % (GI%)
NCI/ADR-RES = assay: cells; assay type: cell-based; conditions: Homo sapiens, read-out: growth inhibition % (GI%)
LOX IMIV = assay: cells; assay type: cell-based; conditions: Homo sapiens, 60 cell, read-out: growth inhibition % (GI%)
K-562 = assay: cells; assay type: cell-based; conditions: Homo sapiens
MCF7 = assay: cells; assay type: cell-based; conditions: Homo sapiens
A498 = assay: cells; assay type: cell-based; conditions: Homo sapiens
OVCAR-4 = assay: cells; assay type: cell-based; conditions: Homo sapiens
IGROV1 = assay: cells; assay type: cell-based; conditions: Homo sapiens
NCI-H226 = assay: cells; assay type: cell-based; conditions: Homo sapiens
DU-145 = assay: cells; assay type: cell-based; conditions: Homo sapiens
HL-60(TB) = assay: cells; assay type: cell-based; conditions: Homo sapiens

SMILES: O=C(CSc1nc2ccccc2c(=O)n1-c1ccccc1)NN=Cc1ccc(Oc2ccc(Br)cc2)cc1 [6b, N'-(4–(4-bromophenoxy)benzylidene)-2-((4-oxo-3-phenyl-3,4-dihydroquinazolin-2-yl)thio) acetohydrazide]
- inhibition at 10 µM (MDA-MB-435; MDA-MB-435, read-out: growth inhibition % (GI%)): 19.2%
- inhibition at 10 µM (HCT-116; HCT-116, read-out: growth inhibition % (GI%)): 92.2%
- inhibition at 10 µM (OVCAR-3): < 15%
- inhibition at 10 µM (SF-295; SF-295, read-out: growth inhibition % (GI%)): 16.3%
- inhibition at 10 µM (KM12; KM12, read-out: growth inhibition % (GI%)): 23.7%
- inhibition at 10 µM (SF-539; SF-539, read-out: growth inhibition % (GI%)): 31.3%
- inhibition at 10 µM (NCI-H460; NCI-H460, read-out: growth inhibition % (GI%)): 72%
- inhibition at 10 µM (SR): 26.6%
- inhibition at 10 µM (SNB-75; SNB-75, read-out: growth inhibition % (GI%)): 42.2%
- inhibition at 10 µM (PC-3; PC-3, read-out: growth inhibition % (GI%)): 28.2%
- inhibition at 10 µM (NCI-H522; NCI-H522, read-out: growth inhibition % (GI%)): 51.5%
- inhibition at 10 µM [1]: 34.8%
- inhibition at 10 µM (HT29; HT-29, read-out: growth inhibition % (GI%)): 61.8%
- inhibition at 10 µM (786-0; 786-0, read-out: growth inhibition % (GI%)): 54%
- inhibition at 10 µM (TK-10; TK-10, read-out: growth inhibition % (GI%)): < 15%
- inhibition at 10 µM (ACHN): < 15%
- inhibition at 10 µM (NCI-H322M): < 15%
- inhibition at 10 µM (CCRF-CEM): 43.1%
- inhibition at 10 µM (UACC-62; UACC-62, read-out: growth inhibition % (GI%)): 31.2%
- inhibition at 10 µM (HOP-62; HOP-62, read-out: growth inhibition % (GI%)): 36.1%
- inhibition at 10 µM (EKVX): 39.3%
- inhibition at 10 µM (MOLT-4; MOLT-4, read-out: growth inhibition % (GI%)): 44.5%
- inhibition at 10 µM (SK-OV-3; SK-OV-3, read-out: growth inhibition % (GI%)): 15.5%
- inhibition at 10 µM (COLO-205; COLO 205, read-out: growth inhibition % (GI%)): 55.6%
- inhibition at 10 µM (SK-MEL-5; SK-MEL-5, read-out: growth inhibition % (GI%)): 40.9%
- inhibition at 10 µM (MDA-MB-468): 34.9%
- inhibition at 10 µM (HCT-15; HCT-15, read-out: growth inhibition % (GI%)): 36.3%
- inhibition at 10 µM (SW-620; SW-620, read-out: growth inhibition % (GI%)): 70.4%
- inhibition at 10 µM (BT-549; BT-549, read-out: growth inhibition % (GI%)): 26.9%
- inhibition at 10 µM (SNB-19; SNB-19, read-out: growth inhibition % (GI%)): 60.1%
- inhibition at 10 µM (HCC-2998; HCC 2998, read-out: growth inhibition % (GI%)): < 15%
- inhibition at 10 µM (SK-MEL-28; SK-MEL-28, read-out: growth inhibition % (GI%)): 29.1%
- inhibition at 10 µM (U251; U-251, read-out: growth inhibition % (GI%)): 78.5%
- inhibition at 10 µM (A549/ATCC; A549, read-out: growth inhibition % (GI%)): 57.8%
- inhibition at 10 µM (RPMI-8226; RPMI-8226, read-out: growth inhibition % (GI%)): 31.7%
- inhibition at 10 µM (SN12C): 59.3%
- inhibition at 10 µM (NCI/ADR-RES): 44.8%
- inhibition at 10 µM (LOX IMIV): 79%
- inhibition at 10 µM (K-562; K562, read-out: growth inhibition % (GI%)): 37.5%
- inhibition at 10 µM (MCF7; MCF7, read-out: growth inhibition % (GI%)): 31.1%
- inhibition at 10 µM (A498; A498, read-out: growth inhibition % (GI%)): 17.7%
- inhibition at 10 µM (OVCAR-4; OVCAR-4, read-out: growth inhibition % (GI%)): 18.3%
- inhibition at 10 µM (IGROV1; IGROV-1, read-out: growth inhibition % (GI%)): 34.5%
- inhibition at 10 µM (NCI-H226; NCI-H226, read-out: growth inhibition % (GI%)): 22.4%
- inhibition at 10 µM (DU-145; DU-145, read-out: growth inhibition % (GI%)): 61.7%
- inhibition at 10 µM (HL-60(TB); HL-60, read-out: growth inhibition % (GI%)): < 15%

SMILES: CN1CCN(c2ccc(C=NNC(=O)CSc3nc4ccccc4c(=O)n3-c3ccc(Cl)cc3)cc2)CC1 [6l, 2-((3–(4-chlorophenyl)-4-oxo-3,4-dihydroquinazolin-2-yl)thio)-N'-(4–(4-methylpiperazin-1-yl)benzylidene)acetohydrazide]
- inhibition at 10 µM (MDA-MB-435; MDA-MB-435, 10 μM, read-out: growth inhibition % (GI%)): < 15%
- inhibition at 10 µM (HCT-116; HCT-116, 10 μM, read-out: growth inhibition % (GI%)): < 15%
- inhibition at 10 µM (OVCAR-3): < 15%
- inhibition at 10 µM (SF-295; SF-295, 10 μM, read-out: growth inhibition % (GI%)): < 15%
- inhibition at 10 µM (KM12; KM12, 10 μM, read-out: growth inhibition % (GI%)): < 15%
- inhibition at 10 µM (SF-539; SF-539, 10 μM, read-out: growth inhibition % (GI%)): < 15%
- inhibition at 10 µM (NCI-H460; NCI-H460, 10 μM, read-out: growth inhibition % (GI%)): < 15%
- inhibition at 10 µM (SR; 10 μM): < 15%
- inhibition at 10 µM (SNB-75; SNB-75, 10 μM, read-out: growth inhibition % (GI%)): < 15%
- inhibition at 10 µM (PC-3; PC-3, 10 μM, read-out: growth inhibition % (GI%)): < 15%
- inhibition at 10 µM (NCI-H522; NCI-H522, 10 μM, read-out: growth inhibition % (GI%)): < 15%
- antiproliferative activity against all tested cell lines ([1]; 10 μM single dose): did not show activity
- inhibition at 10 µM [1]: < 0%
- inhibition at 10 µM (HT29; HT-29, HT29, 10 μM, read-out: growth inhibition % (GI%)): < 15%
- inhibition at 10 µM (786-0; 786-0, 10 μM, read-out: growth inhibition % (GI%)): < 15%
- inhibition at 10 µM (TK-10; TK-10, 10 μM, read-out: growth inhibition % (GI%)): < 15%
- inhibition at 10 µM (ACHN; 10 μM): < 15%
- inhibition at 10 µM (NCI-H322M; 10 μM): < 15%
- inhibition at 10 µM (CCRF-CEM; 10 μM): < 15%
- inhibition at 10 µM (UACC-62; UACC-62, 10 μM, read-out: growth inhibition % (GI%)): < 15%
- inhibition at 10 µM (HOP-62; HOP-62, 10 μM, read-out: growth inhibition % (GI%)): < 15%
- inhibition at 10 µM (EKVX; 10 μM): < 15%
- inhibition at 10 µM (MOLT-4; MOLT-4, 10 μM, read-out: growth inhibition % (GI%)): < 15%
- inhibition at 10 µM (SK-OV-3; SK-OV-3, 10 μM, read-out: growth inhibition % (GI%)): < 15%
- inhibition at 10 µM (COLO-205; COLO-205, 10 μM, read-out: growth inhibition % (GI%)): < 15%
- inhibition at 10 µM (SK-MEL-5; SK-MEL-5, 10 μM, read-out: growth inhibition % (GI%)): < 15%
- inhibition at 10 µM (MDA-MB-468): < 15%
- inhibition at 10 µM (HCT-15; HCT-15, 10 μM, read-out: growth inhibition % (GI%)): < 15%
- inhibition at 10 µM (SW-620; SW-620, 10 μM, read-out: growth inhibition % (GI%)): < 15%
- inhibition at 10 µM (BT-549; BT-549, 10 μM, read-out: growth inhibition % (GI%)): < 15%
- inhibition at 10 µM (SNB-19; SNB-19, 10 μM, read-out: growth inhibition % (GI%)): < 15%
- inhibition at 10 µM (HCC-2998; HCC-2998, 10 μM, read-out: growth inhibition % (GI%)): < 15%
- inhibition at 10 µM (SK-MEL-28; SK-MEL-28, 10 μM, read-out: growth inhibition % (GI%)): < 15%
- inhibition at 10 µM (U251; U-251, U251, 10 μM, read-out: growth inhibition % (GI%)): < 15%
- inhibition at 10 µM (A549/ATCC; A549/ATCC, 10 μM, read-out: growth inhibition % (GI%)): < 15%
- inhibition at 10 µM (RPMI-8226; RPMI-8226, 10 μM, read-out: growth inhibition % (GI%)): < 15%
- inhibition at 10 µM (SN12C; 10 μM): < 15%
- inhibition at 10 µM (NCI/ADR-RES; 10 μM): < 15%
- inhibition at 10 µM (LOX IMIV; LOX IMIV, 10 μM): 15.2%
- inhibition at 10 µM (K-562; K562, K-562, 10 μM, read-out: growth inhibition % (GI%)): < 15%
- inhibition at 10 µM (MCF7; MCF7, 10 μM, read-out: growth inhibition % (GI%)): < 15%
- inhibition at 10 µM (A498; A498, 10 μM, read-out: growth inhibition % (GI%)): 32.6%
- inhibition at 10 µM (OVCAR-4; OVCAR-4, 10 μM, read-out: growth inhibition % (GI%)): < 15%
- inhibition at 10 µM (IGROV1; IGROV-1, IGROV1, 10 μM, read-out: growth inhibition % (GI%)): < 15%
- inhibition at 10 µM (NCI-H226; NCI-H226, 10 μM, read-out: growth inhibition % (GI%)): < 15%
- inhibition at 10 µM (DU-145; DU-145, 10 μM, read-out: growth inhibition % (GI%)): < 15%
- inhibition at 10 µM (HL-60(TB); HL-60(TB), 10 μM, read-out: growth inhibition % (GI%)): < 15%
